Reference: US10004732B2 (Novartis AG, priority 2014, dated 2018)
Where two headings read alike, the source gives them in different places.

Legend:
PI 3-kinase beta [1] = target: T1, PI 3-kinase beta (Homo sapiens, UniProt P42338); assay: Kinase Glo Luminescent Kinase Assay (Kglo), assay B; type: biochemical; conditions: read-out: Assay B PI3Kβ IC50
Target sequence in this assay (P42338 whole entry): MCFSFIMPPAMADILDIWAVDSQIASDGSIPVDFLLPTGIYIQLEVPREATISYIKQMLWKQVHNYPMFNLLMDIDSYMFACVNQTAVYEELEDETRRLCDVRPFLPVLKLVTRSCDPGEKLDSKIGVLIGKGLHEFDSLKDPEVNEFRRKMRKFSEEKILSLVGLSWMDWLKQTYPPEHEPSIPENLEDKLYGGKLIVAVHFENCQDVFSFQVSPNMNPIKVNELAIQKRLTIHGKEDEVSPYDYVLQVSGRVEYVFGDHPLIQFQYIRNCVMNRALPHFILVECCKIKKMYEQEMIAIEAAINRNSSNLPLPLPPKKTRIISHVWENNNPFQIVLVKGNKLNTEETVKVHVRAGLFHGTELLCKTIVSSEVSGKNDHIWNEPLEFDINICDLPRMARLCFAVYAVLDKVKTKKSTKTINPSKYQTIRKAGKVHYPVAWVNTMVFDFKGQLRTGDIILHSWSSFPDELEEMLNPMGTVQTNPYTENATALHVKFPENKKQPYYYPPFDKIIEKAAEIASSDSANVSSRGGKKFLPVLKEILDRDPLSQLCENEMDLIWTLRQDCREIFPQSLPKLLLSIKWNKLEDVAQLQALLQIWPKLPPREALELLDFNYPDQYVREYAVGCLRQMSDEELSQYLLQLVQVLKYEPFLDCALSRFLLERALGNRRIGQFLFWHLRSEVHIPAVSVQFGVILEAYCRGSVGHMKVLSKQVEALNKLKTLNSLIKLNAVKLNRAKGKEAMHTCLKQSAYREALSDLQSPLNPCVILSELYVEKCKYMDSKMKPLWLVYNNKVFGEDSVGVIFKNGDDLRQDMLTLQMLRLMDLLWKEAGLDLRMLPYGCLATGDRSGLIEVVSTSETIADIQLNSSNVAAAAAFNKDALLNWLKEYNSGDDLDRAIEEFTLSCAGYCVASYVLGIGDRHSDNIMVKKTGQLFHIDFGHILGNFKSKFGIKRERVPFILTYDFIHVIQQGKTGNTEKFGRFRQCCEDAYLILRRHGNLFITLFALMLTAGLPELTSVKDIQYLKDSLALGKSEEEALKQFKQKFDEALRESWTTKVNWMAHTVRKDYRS
Target sequence in this assay (P27986 461-568 partner): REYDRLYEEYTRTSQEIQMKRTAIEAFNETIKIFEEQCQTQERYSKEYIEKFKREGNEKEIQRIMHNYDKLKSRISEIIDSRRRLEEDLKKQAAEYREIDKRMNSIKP

PI 3-kinase alpha [2] = target: T2, PI 3-kinase alpha (Homo sapiens, UniProt P42336); assay: Kinase Glo Luminescent Kinase Assay (Kglo), assay A; type: biochemical; conditions: read-out: Assay A PI3Kα IC50
Target sequence in this assay (P42336 whole entry): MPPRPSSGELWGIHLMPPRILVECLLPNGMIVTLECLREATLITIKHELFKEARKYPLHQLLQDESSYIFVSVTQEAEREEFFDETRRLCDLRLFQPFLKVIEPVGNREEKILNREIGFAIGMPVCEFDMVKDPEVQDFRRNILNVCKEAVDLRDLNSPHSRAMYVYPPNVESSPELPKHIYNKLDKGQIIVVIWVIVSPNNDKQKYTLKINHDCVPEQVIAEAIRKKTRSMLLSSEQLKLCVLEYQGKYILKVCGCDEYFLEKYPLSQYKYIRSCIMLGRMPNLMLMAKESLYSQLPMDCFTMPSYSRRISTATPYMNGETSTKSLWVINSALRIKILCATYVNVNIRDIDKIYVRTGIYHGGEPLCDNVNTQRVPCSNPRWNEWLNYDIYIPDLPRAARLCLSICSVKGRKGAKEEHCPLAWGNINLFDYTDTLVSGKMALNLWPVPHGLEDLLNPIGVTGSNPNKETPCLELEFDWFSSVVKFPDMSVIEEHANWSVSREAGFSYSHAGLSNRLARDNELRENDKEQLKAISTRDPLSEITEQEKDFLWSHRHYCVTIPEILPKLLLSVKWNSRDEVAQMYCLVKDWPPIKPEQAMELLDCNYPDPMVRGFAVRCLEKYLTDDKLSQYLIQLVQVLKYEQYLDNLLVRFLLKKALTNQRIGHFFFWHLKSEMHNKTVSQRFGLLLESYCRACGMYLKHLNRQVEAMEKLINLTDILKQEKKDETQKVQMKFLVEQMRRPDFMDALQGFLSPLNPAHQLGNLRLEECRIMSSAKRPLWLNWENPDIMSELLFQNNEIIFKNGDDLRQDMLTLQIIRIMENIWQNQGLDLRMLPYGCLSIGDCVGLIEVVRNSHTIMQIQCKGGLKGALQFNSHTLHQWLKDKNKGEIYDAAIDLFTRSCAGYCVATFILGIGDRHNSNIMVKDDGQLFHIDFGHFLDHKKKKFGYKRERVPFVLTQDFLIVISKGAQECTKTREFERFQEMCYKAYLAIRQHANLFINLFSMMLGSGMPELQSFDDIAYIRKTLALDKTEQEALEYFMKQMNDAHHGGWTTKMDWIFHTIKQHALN

PI 3-kinase delta [3] = target: T3, PI 3-kinase delta (Homo sapiens, UniProt O00329); assay: TR-FRET Adapta assay, assay F
PI 4-kinase beta = PI 4-kinase beta (Homo sapiens, UniProt Q9UBF8); assay: Kinase Glo Luminescent Kinase Assay (Kglo), assay D; type: biochemical
PI 3-kinase delta [4] = target: T3, PI 3-kinase delta; assay: Cellular assay J2, p-AKT (Ser473) in Rat-1 cells, HTRF format; type: cell-based; conditions: asterisked data: version J2 (HTRF format), read-out: Assay J PI3Kδ IC50
Experimental: (§1) Cellular Assays for PI 3-Kinase Alpha (H2), Beta (12) and Delta (J2): HTRF (Homogeneous Time Resolved Fluorescence) Format
(§2) All cell lines were cultivated in complete growth medium (DMEM high glucose GlutaMAX™ Pyruvate, 10% (v/v) fetal bovine serum, 0.1 mM MEM NEAA, 25 mM HEPES, puromycin 10 μg/mL, 100 U/ml Penicillin, 100 μg/ml Streptomycin) to 90% confluency at 37° C./5% CO2/90% humidity in a humidified CO2 incubator and were split twice a week.
(§3) Semi-automated preparation of cell lysates: For low (inhibited) controls, 0.9 mM NVP-BGT226-AF-1 in 90% (v/v) DMSO was added to the compound master plate. For compound testing, the cells were seeded at a density of 4000 (Rat-1_PI3Kdelta), 8000 (Rat-1_PI3Kalpha), or 6500 (Rat-1_PI3Kbeta) cells in 30 μl complete growth medium into cell culture treated 384-well plates and were grown at 37° C./5% CO2/90% humidity for 24 h. 10 μl of the compound predilutions were transferred to the cells.

PI 3-kinase gamma [5] = target: T4, PI 3-kinase gamma (Homo sapiens, UniProt P48736); assay: TR-FRET Adapta assay, assay E; type: biochemical; conditions: read-out: Assay E PI3Kγ IC50
[6] = test system: IL-8-induced neutrophil shape change in human whole blood; assay: Whole blood neutrophil shape change assay (L); type: cell-based; conditions: Homo sapiens, Neutrophil, IL-8, human whole blood, read-out: Assay L WBSC IC50
PI 3-kinase gamma [7] = target: T4, PI 3-kinase gamma; assay: Cellular U937 AKT assay K2 (HTRF); type: cell-based; conditions: U937 cells, K2 format; read-out: Assay K2 PI3Kγ IC50
Experimental: In assays K1 and K2, the compounds were tested for their ability to inhibit the production of phosphorylated AKT (Protein Kinase B) generated in a PI 3-kinase gamma isoform-dependent process in a U937 human cell line.
Cellular U937 AKT Assay for PI 3-Kinase Gamma (K2)
U937 cells are split every 3-4 days: 5×10^6 cells/flask (175 cm^2) in 40 ml.
Semi-automated preparation of cell lysates: Cells were resuspended in HBSS, seeded (200′000 cells/well/60 μl) into a 384-well plate and incubated in a humidified 37° C., 5% CO2 incubator for 1.5 hours. The compounds were diluted with HBSS and 40 μl were added to the starved cells (except for wells 24 I-P). […] The cells were then incubated for 30 minutes at 37° C. and 5% CO2. Stimulation occurred during 3 minutes by addition of 20 μl MIP1α (final 10 ng/ml, diluted in HBSS) in the incubator. Wells 24 A-H were only stimulated with HBSS.
The stimulation was then stopped by putting the cell plates on ice (filled with cold water). The cells were then centrifuged at 1200 rpm and 4° C. for 3 minutes.
80 μl of supernatant was removed. The cells were again centrifuged at 1200 rpm and 4° C. for 3 minutes. The supernatant was then removed by turning plates upside down and 30 μl of lysis buffer were added. The plate was incubated at room temperature for 30 minutes under shaking. 16 μl were then transferred to a ProxiPlate Plus 384-well. 4 μl of the master mix (each conjugate diluted 1:20 with detection reagent) were added to each well and the plate was kept in the dark at room temperature for 4 hours.

Vps34 = Vps34 (Homo sapiens, UniProt Q8NEB9); assay: Kinase Glo Luminescent Kinase Assay (Kglo), assay C; type: biochemical
[8] = Microsomal clearance assay (M); conditions: intrinsic clearance in rat liver microsomes
Experimental: (§4) The experiments were performed in 96-well glass plates at 37° C. on an automated Tecan EVO platform. Test compounds at a concentration of 10 mM in pure DMSO were diluted 1:1000 in water to 10 μM. […] Reactions were initiated by the addition of 150 μL of a cofactor solution containing 2 mM NADPH.

PI 3-kinase alpha [9] = target: T2, PI 3-kinase alpha; assay: Cellular assay H2, p-AKT (Ser473) in Rat-1 cells, HTRF format; type: cell-based; conditions: asterisked data: version H2 (HTRF format), read-out: Assay H PI3Kα IC50
Target sequence in this assay (P42336 whole entry): as above
Target sequence in this assay (Q63787 whole entry partner): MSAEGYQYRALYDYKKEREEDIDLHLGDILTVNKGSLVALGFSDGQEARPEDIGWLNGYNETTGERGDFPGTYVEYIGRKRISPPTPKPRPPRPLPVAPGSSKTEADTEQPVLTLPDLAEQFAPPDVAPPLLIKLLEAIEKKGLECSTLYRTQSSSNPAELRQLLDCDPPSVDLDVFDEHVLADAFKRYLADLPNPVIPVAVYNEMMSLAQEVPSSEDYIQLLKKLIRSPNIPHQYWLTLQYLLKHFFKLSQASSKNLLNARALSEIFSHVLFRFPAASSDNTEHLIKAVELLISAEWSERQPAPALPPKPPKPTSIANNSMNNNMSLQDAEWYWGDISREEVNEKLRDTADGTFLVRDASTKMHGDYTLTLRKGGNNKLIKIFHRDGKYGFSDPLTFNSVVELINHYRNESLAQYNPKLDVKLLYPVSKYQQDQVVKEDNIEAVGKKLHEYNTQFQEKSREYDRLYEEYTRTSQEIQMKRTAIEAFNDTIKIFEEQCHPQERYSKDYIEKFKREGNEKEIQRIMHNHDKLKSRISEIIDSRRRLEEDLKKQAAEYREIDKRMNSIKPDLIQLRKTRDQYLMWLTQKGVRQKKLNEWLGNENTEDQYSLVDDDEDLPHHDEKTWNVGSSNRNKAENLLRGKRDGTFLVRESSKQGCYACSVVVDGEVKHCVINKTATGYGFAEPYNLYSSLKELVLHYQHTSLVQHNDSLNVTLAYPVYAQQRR
Experimental: as §1, §2, §3

PI 3-kinase beta [10] = target: T1, PI 3-kinase beta; assay: Cellular assay I2, p-AKT (Ser473) in Rat-1 cells, HTRF format; type: cell-based; conditions: asterisked data: version I2 (HTRF format), read-out: Assay I PI3Kβ IC50
Target sequence in this assay (P42338 whole entry): as the sequence (P42338 whole entry) above
Target sequence in this assay (Q63787 whole entry partner): as the sequence (Q63787 whole entry partner) above
Experimental: as §1, §2, §3

PI 3-kinase gamma [11] = target: T4, PI 3-kinase gamma; assay: Cellular U937 AKT assay K1 (MSD); type: cell-based; conditions: U937 cells, K1 format; read-out: Assay K1 PI3Kγ IC50
PI 3-kinase beta [12] = target: T1, PI 3-kinase beta; assay: Cellular assay I1, p-Akt (S473) in Rat-1 cells, Surefire format; type: cell-based
Target sequence in this assay (P42338 whole entry): as the sequence (P42338 whole entry) above
Target sequence in this assay (Q63787 whole entry partner): as the sequence (Q63787 whole entry partner) above

mTOR = mTOR (Homo sapiens, UniProt P42345); assay: Lanthascreen kinase binding assay, assay G; conditions: Assay G mTOR IC50 (μM)
Experimental: Lanthascreen™ Kinase Binding Assay for mTOR (G)
Binding of an inhibitor to the kinase competes for binding with the tracer, resulting in a loss of FRET.
50 nL of compound dilutions were dispensed onto white 384-well small volume polystyrene plate.

PI 3-kinase alpha [13] = target: T2, PI 3-kinase alpha; assay: Cellular assay H1, p-Akt (S473) in Rat-1 cells, Surefire format; type: cell-based
Target sequence in this assay (P42336 whole entry): as the sequence (P42336 whole entry) above
Target sequence in this assay (Q63787 whole entry partner): as the sequence (Q63787 whole entry partner) above

[14] = rat, microsomes, 1 µM, pH 7.4
Experimental: as §4

PI 3-kinase delta [15] = target: T3, PI 3-kinase delta; assay: Cellular assay J1, p-Akt (S473) in Rat-1 cells, Surefire format; type: cell-based
Text: Cellular Assays for PI 3-Kinase Alpha (H1), Beta (I1) and Delta (J1): Surefire Format
AlphaScreen (Amplified Luminescent Proximity Homogeneous Assay, ALPHA, Perkin Elmer) is a non-radioactive bead-based proximity assay technology to study biomolecular interactions in a homogenous microtiter plate format. The brand name SureFire denotes AlphaScreen assays that are adapted to quantify the phosphorylation of endogenous cellular proteins in cell lysates, by using matched antibody pairs, which consist of an anti-phospho-kinase and an anti-kinase antibody. The assay allows characterization of kinase signaling in cells as well as measurement of kinase inhibitor effects.
Using Rat-1 cells stably expressing myr-HA-tagged versions of the human PI3Kdelta, PI3Kalpha, or PI3Kbeta p110 catalytic subunit isoforms, the assay was developed as a two-plate protocol in a 384-well format.
For compound testing, the cells were seeded at a density of 4000 (Rat-1_PI3Kdelta), 7500 (Rat-1_PI3Kalpha), or 6200 (Rat-1_PI3Kbeta) cells in 20 μl complete growth medium into cell culture treated 384-well plates and were grown at 37° C./5% CO2/90% humidity for 24 h. Shortly before compound transfer, the complete medium was removed, 30 μl assay buffer (DMEM high glucose, 1×MEM NEAA, 10 mM HEPES, 2 mM L-glutamine, 0.1% (w/v) BSA) was added and 10 μl of the compound predilutions were transferred to the cells.

T4 sequence (P48736 whole entry): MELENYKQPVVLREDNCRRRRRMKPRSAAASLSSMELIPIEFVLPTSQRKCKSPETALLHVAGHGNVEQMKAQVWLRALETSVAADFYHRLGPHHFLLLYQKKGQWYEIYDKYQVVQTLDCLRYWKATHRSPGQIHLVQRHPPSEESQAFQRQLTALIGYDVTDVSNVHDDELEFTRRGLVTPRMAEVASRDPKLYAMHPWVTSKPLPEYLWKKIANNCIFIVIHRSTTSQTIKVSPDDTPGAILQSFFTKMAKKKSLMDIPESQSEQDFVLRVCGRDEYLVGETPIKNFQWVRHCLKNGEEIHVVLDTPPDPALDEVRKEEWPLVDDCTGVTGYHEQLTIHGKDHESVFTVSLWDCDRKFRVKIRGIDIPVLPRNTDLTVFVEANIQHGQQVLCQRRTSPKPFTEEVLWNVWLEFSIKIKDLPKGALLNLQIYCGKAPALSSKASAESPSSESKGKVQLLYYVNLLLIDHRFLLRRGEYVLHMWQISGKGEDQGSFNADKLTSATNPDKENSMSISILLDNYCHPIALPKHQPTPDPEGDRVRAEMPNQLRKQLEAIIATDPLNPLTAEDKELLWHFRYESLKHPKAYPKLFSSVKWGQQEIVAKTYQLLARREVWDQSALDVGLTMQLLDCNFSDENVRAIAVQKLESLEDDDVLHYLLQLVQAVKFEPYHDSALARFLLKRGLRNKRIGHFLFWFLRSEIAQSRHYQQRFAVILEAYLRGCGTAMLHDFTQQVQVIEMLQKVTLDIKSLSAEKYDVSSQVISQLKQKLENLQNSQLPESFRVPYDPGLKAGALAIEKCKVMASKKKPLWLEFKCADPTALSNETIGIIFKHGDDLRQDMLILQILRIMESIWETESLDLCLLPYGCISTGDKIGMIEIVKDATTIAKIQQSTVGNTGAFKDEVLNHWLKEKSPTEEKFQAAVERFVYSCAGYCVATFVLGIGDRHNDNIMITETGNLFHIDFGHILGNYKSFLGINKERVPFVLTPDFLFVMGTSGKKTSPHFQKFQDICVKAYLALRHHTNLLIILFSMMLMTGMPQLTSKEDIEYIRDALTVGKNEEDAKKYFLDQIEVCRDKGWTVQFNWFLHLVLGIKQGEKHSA

SMILES | IC50 (PI 3-kinase beta [1]) | IC50 (PI 3-kinase alpha [2]) | IC50 (PI 3-kinase delta [3]) | IC50 (PI 4-kinase beta; read-out: Assay D PI4Kβ IC50) | IC50 (PI 3-kinase delta [4]) | IC50 (PI 3-kinase gamma [5]) | IC50 [6] | IC50 (PI 3-kinase gamma [7]) | IC50 (Vps34; read-out: Assay C VPS34 IC50) | Assay M RLM CI(int) [8] | IC50 (PI 3-kinase alpha [9]) | IC50 (PI 3-kinase beta [10]) | IC50 (PI 3-kinase delta [3]; read-out: Assay F PI3Kδ IC50) | further results
Cc1ncc(-c2nc(-c3cc(S(=O)(=O)N[C@H]4C[C@@H](O)C4)ccc3C)cnc2N)s1 [Example 43a, cis-3-(5-Amino-6-(2-methylthiazol-5-yl)pyrazin-2-yl)-N-(3-hydroxycyclobutyl)-4-methylbenzenesulfonamide] | 0.69 µM | 0.1 µM | 0.67 µM | 2.3 µM | 0.97 µM | 0.026 µM | 0.992 µM | 0.068 µM | 2.5 µM | 63 µL/min/mg | 2.14 µM | 4.56 µM |  | 
Cc1ncc(-c2nc(-c3cc(S(=O)(=O)N[C@H]4C[C@H](O)C4)ccc3C)cnc2N)s1 [Example 43b, trans-3-(5-Amino-6-(2-methylthiazol-5-yl)pyrazin-2-yl)-N-(3-hydroxycyclobutyl)-4-methylbenzenesulfonamide] | 1.5 µM | 0.23 µM | 2.2 µM | 4.8 µM | 2.18 µM | 0.042 µM |  | 0.18 µM | 5.5 µM | 45 µL/min/mg | 5.44 µM | 2.95 µM |  | 
Cc1ncc(-c2nc(-c3cc(S(=O)(=O)NCC4CCCCO4)ccc3C)cnc2N)s1 (stereo not drawn) [Example 45.4, 3-(5-Amino-6-(2-methylthiazol-5-yl)pyrazin-2-yl)-4-methyl-N-((tetrahydro-2H-pyran-2-yl)methyl)benzenesulfonamide] | 0.88 µM | 0.11 µM |  | 1.8 µM | 0.58 µM | 0.009 µM |  |  | 3 µM | 502 µL/min/mg | 1.23 µM | 2.13 µM | 0.1 µM | 
Cc1ncc(-c2nc(-c3cc(S(=O)(=O)NCC4(CO)CCOCC4)ccc3C)cnc2N)s1 [Example 45.9, 3-(5-Amino-6-(2-methylthiazol-5-yl)pyrazin-2-yl)-N-((4-(hydroxymethyl)tetrahydro-2H-pyran-4-yl)methyl)-4-methylbenzenesulfonamide] | 0.32 µM | 0.03 µM |  | 4.9 µM | 0.28 µM | 0.039 µM |  | 0.033 µM |  | 83 µL/min/mg | 0.35 µM | 0.88 µM | 0.1 µM | 
Cc1ccc(S(=O)(=O)NC2CCOCC2)cc1-c1cnc(N)c(-n2cncn2)n1 [Example 68, 3-(5-Amino-6-(1H-1,2,4-triazol-1-yl)pyrazin-2-yl)-4-methyl-N-(tetrahydro-2H-pyran-4-yl)benzenesulfonamide] | 2.55 µM | 0.64 µM |  |  |  | 0.072 µM | 1.79 µM |  |  |  |  |  | 1.5 µM | IC50 (PI 4-kinase beta; Assay D PI4Kβ IC50 (μM)): 4.4 µM; IC50 (PI 3-kinase gamma [11]): 0.43 µM; IC50 (Vps34): > 10 µM; IC50 (PI 3-kinase beta [12]): 6.25 µM; IC50 (mTOR): 8.75 µM; IC50 (PI 3-kinase alpha [13]): 2.84 µM; Assay M RLM CI(int) [14]: 54 µL/min/mg; IC50 (PI 3-kinase delta [15]): 3.11 µM
Cc1ncc(-c2nc(-c3cc(S(=O)(=O)NCC(C)(C)O)ccc3C)cnc2N)o1 [Example 126, 3-(5-Amino-6-(2-methyloxazol-5-yl)pyrazin-2-yl)-N-(2-hydroxy-2-methylpropyl)-4-methylbenzenesulfonamide] | 3.1 µM | 0.28 µM |  | > 10 µM | 4.24 µM | 0.057 µM |  |  | > 10 µM | 20 µL/min/mg | 4 µM | > 10 µM | 1 µM | 
